Here are results for eleven molecules from PubChem BioAssay (NCI).

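How tested: cells in 96-well plates exposed to compound for 48 hours at five concentrations. GI50: concentration for 50% inhibition of growth. TGI is the concentration that stops growth completely.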

Test systems include UACC-257 melanoma; SK-MEL-28 melanoma; SF-268 CNS; MOLT-4 leukemia; HT29 colon; HOP-62 NSCLC; DU-145 prostate; IGROV1 ovarian; COLO 205 colon; OVCAR-4 ovarian.
Holding throughout (assay): NCI anticancer screen, dose series, 48 h

As to `CC(C)[C@H]1NC(=O)[C@H]2N=C(O[C@@H]2C)[C@@H]2CCCN2C(=O)[C@H](Cc2ccccc2)NC(=O)[C@@H]2CSC(=N2)[C@@H](Cc2ccccc2)NC(=O)[C@@H]2CSC1=N2`, the TGI in the assay with UACC-257 melanoma, in the assay on SK-MEL-28 melanoma, with SF-268 CNS, in the assay on MOLT-4 leukemia, with HT29 colon and in the assay on HOP-62 NSCLC was more than 100 µM throughout. The TGI with DU-145 prostate, with IGROV1 ovarian, in the assay on COLO 205 colon and in the assay on OVCAR-4 ovarian was more than 100 µM each time.

As for `COc1ccc2c(c1)nc1n2C(N)=Nc2ccccc2S1`, the TGI in the assay on UACC-257 melanoma was more than 100 µM; with SK-MEL-28 melanoma, more than 100 µM; in the assay on SF-268 CNS, more than 100 µM; in the assay with MOLT-4 leukemia, more than 56.6 µM; with HT29 colon, more than 100 µM; in the assay on HOP-62 NSCLC, more than 100 µM. In addition, the TGI in the assay with DU-145 prostate, with IGROV1 ovarian, in the assay on COLO 205 colon and in the assay on OVCAR-4 ovarian was more than 100 µM throughout.

For `Cc1cc(Nc2ccc(N=Nc3ccc(O)c4ncccc34)cc2)nc(C)n1`, the TGI in the assay on UACC-257 melanoma was 43.8 µM; in the assay on SK-MEL-28 melanoma, more than 68.7 µM; in the assay on SF-268 CNS, more than 51.9 µM; in the assay on MOLT-4 leukemia, 48.3 µM; with HT29 colon, more than 75.2 µM; with HOP-62 NSCLC, more than 69.6 µM. Besides, the TGI in the assay with DU-145 prostate stood at 69.7 µM; with IGROV1 ovarian, 32 µM; in the assay with COLO 205 colon, 40.4 µM; with OVCAR-4 ovarian, 71.7 µM.

Turning to `Cc1cc(NS(=O)(=O)c2ccc(NC(=O)c3cccc4c(NNc5ccc(S(=O)(=O)N=C(N)N)cc5)c5ccccc5nc34)cc2)no1`, the TGI in the assay with UACC-257 melanoma is more than 100 µM; in the assay with SK-MEL-28 melanoma it was more than 100 µM; with SF-268 CNS it was more than 100 µM; with MOLT-4 leukemia, 74.9 µM; in the assay with HT29 colon, 92.6 µM; in the assay on HOP-62 NSCLC, more than 100 µM. In addition, the TGI in the assay on DU-145 prostate, in the assay on IGROV1 ovarian, in the assay on COLO 205 colon and in the assay on OVCAR-4 ovarian was more than 100 µM each time.

Take `CC(NC(=O)OCc1ccccc1)NC(=O)C(CC(=O)OC(C)(C)C)NC(=O)OC(C)(C)C` (stereo not given): the TGI with UACC-257 melanoma, in the assay with SK-MEL-28 melanoma, with SF-268 CNS, in the assay with MOLT-4 leukemia, in the assay with HT29 colon and in the assay with HOP-62 NSCLC was more than 100 µM in each case. Also, the TGI in the assay on DU-145 prostate, with IGROV1 ovarian, in the assay on COLO 205 colon and with OVCAR-4 ovarian was more than 100 µM throughout.

As for `CC(NC1=NCCO1)c1cccc([N+](=O)[O-])c1` (stereo not given), the TGI with UACC-257 melanoma, in the assay on SK-MEL-28 melanoma, in the assay on SF-268 CNS, in the assay on MOLT-4 leukemia, in the assay with HT29 colon and in the assay on HOP-62 NSCLC was more than 100 µM in each case. Besides, the TGI in the assay with DU-145 prostate, in the assay with IGROV1 ovarian, in the assay on COLO 205 colon and in the assay with OVCAR-4 ovarian was more than 100 µM throughout.

As to `COC(=O)c1ccccc1C#CCCCOS(C)(=O)=O`, the TGI with UACC-257 melanoma, in the assay on SK-MEL-28 melanoma, in the assay on SF-268 CNS, in the assay on MOLT-4 leukemia, in the assay with HT29 colon and with HOP-62 NSCLC was more than 10 µM in each case. Moreover, the TGI with DU-145 prostate, in the assay on IGROV1 ovarian, with COLO 205 colon and in the assay with OVCAR-4 ovarian was more than 10 µM each time.

`N/N=C1/C(=N/O)CCc2nonc21`: the TGI in the assay on UACC-257 melanoma, in the assay with SK-MEL-28 melanoma, in the assay with SF-268 CNS, in the assay on MOLT-4 leukemia, in the assay on HT29 colon and with HOP-62 NSCLC was more than 100 µM in each case. The TGI in the assay on DU-145 prostate, in the assay on IGROV1 ovarian, in the assay with COLO 205 colon and in the assay with OVCAR-4 ovarian was more than 100 µM each time.

For `COc1ccc(C(=C(I)c2ccccc2)c2ccc(OC)cc2)cc1`, the TGI in the assay with UACC-257 melanoma, with SK-MEL-28 melanoma, in the assay with SF-268 CNS, in the assay with MOLT-4 leukemia, in the assay on HT29 colon and with HOP-62 NSCLC was more than 100 µM each time. Also, the TGI in the assay with DU-145 prostate, in the assay on IGROV1 ovarian, with COLO 205 colon and with OVCAR-4 ovarian was more than 100 µM throughout.

Consider `O=c1[nH]c2cc3cccnc3c(Cl)c2nc1C(F)(F)F`, for which the TGI in the assay with UACC-257 melanoma was more than 100 µM; with SK-MEL-28 melanoma, more than 100 µM; with SF-268 CNS it was more than 100 µM; in the assay on MOLT-4 leukemia, 83.2 µM; in the assay with HT29 colon it was more than 100 µM; with HOP-62 NSCLC, more than 100 µM. Further, the TGI in the assay on DU-145 prostate was more than 100 µM; in the assay on IGROV1 ovarian, more than 100 µM; with COLO 205 colon, more than 100 µM; in the assay with OVCAR-4 ovarian it was 83 µM.

Turning to `CCOC(=O)c1c2c(n3ccc(NC(=O)OC(C)(C)C)cc13)C(=O)c1ncccc1C2=O`, the GI50 was 0.265 µM in the assay with UACC-257 melanoma; 0.232 µM in the assay on SK-MEL-28 melanoma; 0.0713 µM with SF-268 CNS; 0.78 µM in the assay on MOLT-4 leukemia; 0.638 µM with HT29 colon; 0.143 µM in the assay with HOP-62 NSCLC. The GI50 with DU-145 prostate was 0.0653 µM; in the assay on IGROV1 ovarian, 0.152 µM; in the assay with COLO 205 colon, 0.352 µM; in the assay with OVCAR-4 ovarian, 0.291 µM. Moreover, the TGI amounted to 0.919 µM with UACC-257 melanoma; 1.4 µM with SK-MEL-28 melanoma; 1.91 µM in the assay on SF-268 CNS; 7.52 µM in the assay on MOLT-4 leukemia; 2.22 µM in the assay with HT29 colon; 0.7 µM in the assay with HOP-62 NSCLC. Also, the TGI in the assay on DU-145 prostate was 1.66 µM; in the assay with IGROV1 ovarian it was 2.28 µM; with COLO 205 colon, 1.56 µM; with OVCAR-4 ovarian it was 3.22 µM.
